# Laboratory results published in publication PMC9133015 (Nature Communications, 2022).
# Several values for one entry are separate records, joined by “and”; a condition that tells them apart may be missing. Equal entries are not always repeated. Where two headings read alike, the source gives them in different places.
# How the values were obtained:
# DYRK1A = biological target: T1, DYRK1A (Homo sapiens, UniProt Q13627); test: DYRKs kinase activity assay (33P-ATP, DYRKtide substrate): DYRK1A; assay type: biochemical
# T1 construct: purchased Reaction Biology Corporation (assay service)
# Pharmacokinetic profiles = assay type: in vivo; conditions: SD rats; for concentration at 0.083 h / concentration at 0.25 h / concentration at 0.5 h: po
smiles,measurement,setting,value
CCN1CCN(C(=O)c2ccc(Nc3ncc(F)c(-c4ccc5nc(N(C)C)sc5c4)n3)nc2)CC1 [YK-2-69],IC50,DYRK1A,> 1 µM
same,% Inhibition DYRK1A,"DYRK1A; 0.000508053 µM, duplicates",-3.57% and 0.43%
same,% Inhibition DYRK1A,"DYRK1A; 0.00152416 µM, duplicates",-1.37% and 1.70%
same,% Inhibition DYRK1A,"DYRK1A; 0.00457247 µM, duplicates",3.49% and -1.24%
same,% Inhibition DYRK1A,"DYRK1A; 0.0137174 µM, duplicates",0.24% and -4.62%
same,% Inhibition DYRK1A,"DYRK1A; 0.0411523 µM, duplicates",-1.12% and -1.40%
same,% Inhibition DYRK1A,"DYRK1A; 0.123457 µM, duplicates",14.11%
same,inhibition at 0.123457 µM,"DYRK1A; 0.123457 µM, duplicates",10.3%
same,% Inhibition DYRK1A,"DYRK1A; 0.37037 µM, duplicates",34.28%
same,inhibition at 0.37037 µM,"DYRK1A; 0.37037 µM, duplicates",26%
same,% Inhibition DYRK1A,"DYRK1A; 1.11111 µM, duplicates",40.80%
same,inhibition at 1.11111 µM,"DYRK1A; 1.11111 µM, duplicates",45.5%
same,% Inhibition DYRK1A,"DYRK1A; 3.33333 µM, duplicates",66.09%
same,inhibition at 3.33333 µM,"DYRK1A; 3.33333 µM, duplicates",64.9%
same,% Inhibition DYRK1A,"DYRK1A; 10 µM, duplicates",69.07%
same,inhibition at 10 µM,"DYRK1A; 10 µM, duplicates",68.2%
same,selectivity over DYRK1A,DYRK1A; vs DYRK2,more than 100 fold
same,Con. (individual rats NO.1-3),"Pharmacokinetic profiles; IV 1 mg/kg, 0.033 h, 1 mg/kg",1120 ng/mL and 712 ng/mL
same,Con. (individual rats NO.1-3),"Pharmacokinetic profiles; IV 1 mg/kg, 0.083 h, 1 mg/kg",959 ng/mL and 574 ng/mL
same,Con. (individual rats NO.1-3),"Pharmacokinetic profiles; IV 1 mg/kg, 0.25 h, 1 mg/kg",611 ng/mL and 402 ng/mL
same,Con. (individual rats NO.1-3),"Pharmacokinetic profiles; IV 1 mg/kg, 0.5 h, 1 mg/kg",480 ng/mL and 383 ng/mL
same,Con. (individual rats NO.1-3),"Pharmacokinetic profiles; IV 1 mg/kg, 1 h, 1 mg/kg",355 ng/mL and 310 ng/mL
same,Con. (individual rats NO.1-3),"Pharmacokinetic profiles; IV 1 mg/kg, 2 h, 1 mg/kg",199 ng/mL and 175 ng/mL
same,Con. (individual rats NO.1-3),"Pharmacokinetic profiles; IV 1 mg/kg, 4 h, 1 mg/kg",96.9 ng/mL and 91.7 ng/mL
same,Con. (individual rats NO.1-3),"Pharmacokinetic profiles; IV 1 mg/kg, 6 h, 1 mg/kg",63.9 ng/mL and 64.4 ng/mL
same,Con. (individual rats NO.1-3),"Pharmacokinetic profiles; IV 1 mg/kg, 8 h, 1 mg/kg",45.3 ng/mL and 36.2 ng/mL
same,Con. (individual rats NO.1-3),"Pharmacokinetic profiles; IV 1 mg/kg, 12 h, 1 mg/kg",14.4 ng/mL
same,Con. (individual rats NO.1-3),"Pharmacokinetic profiles; PO 10 mg/kg, 0.083 h, 10 mg/kg",9.74 ng/mL and 9.99 ng/mL
same,Con. (individual rats NO.1-3),"Pharmacokinetic profiles; PO 10 mg/kg, 0.25 h, 10 mg/kg",82.5 ng/mL and 106 ng/mL
same,Con. (individual rats NO.1-3),"Pharmacokinetic profiles; PO 10 mg/kg, 0.5 h, 10 mg/kg",228 ng/mL and 221 ng/mL
same,Con. (individual rats NO.1-3),"Pharmacokinetic profiles; PO 10 mg/kg, 1 h, 10 mg/kg",437 ng/mL and 376 ng/mL
same,Con. (individual rats NO.1-3),"Pharmacokinetic profiles; PO 10 mg/kg, 2 h, 10 mg/kg",729 ng/mL and 559 ng/mL
same,Con. (individual rats NO.1-3),"Pharmacokinetic profiles; PO 10 mg/kg, 4 h, 10 mg/kg",695 ng/mL and 609 ng/mL
same,Con. (individual rats NO.1-3),"Pharmacokinetic profiles; PO 10 mg/kg, 6 h, 10 mg/kg",538 ng/mL and 544 ng/mL
same,Con. (individual rats NO.1-3),"Pharmacokinetic profiles; PO 10 mg/kg, 8 h, 10 mg/kg",435 ng/mL and 507 ng/mL
same,Con. (individual rats NO.1-3),"Pharmacokinetic profiles; PO 10 mg/kg, 12 h, 10 mg/kg",220 ng/mL and 279 ng/mL
same,Con. (individual rats NO.1-3),"Pharmacokinetic profiles; PO 10 mg/kg, 24 h, 10 mg/kg",38.4 ng/mL and 66 ng/mL
same,concentration at 0.033 h,"Pharmacokinetic profiles; SD, rat, serum, iv, 1 mg/kg, IV 1 mg/kg, 0.033 h, read-out: Con. (individual rats NO.1-3)",1.09 µg/mL
same,concentration at 2 h,"Pharmacokinetic profiles; SD, rat, serum, iv, 1 mg/kg, IV 1 mg/kg, 2 h, read-out: Con. (individual rats NO.1-3)",0.209 µg/mL
same,concentration at 2 h,"Pharmacokinetic profiles; SD, rat, serum, iv, 1 mg/kg, IV 1 mg/kg, 2 h, read-out: Con. Mean",0.194 µg/mL
same,concentration at 4 h,"Pharmacokinetic profiles; SD, rat, serum, iv, 1 mg/kg, IV 1 mg/kg, 4 h, read-out: Con. (individual rats NO.1-3)",0.097 µg/mL
same,concentration at 4 h,"Pharmacokinetic profiles; SD, rat, serum, iv, 1 mg/kg, IV 1 mg/kg, 4 h, read-out: Con. Mean",0.0952 µg/mL
same,concentration at 6 h,"Pharmacokinetic profiles; SD, rat, serum, iv, 1 mg/kg, IV 1 mg/kg, 6 h, read-out: Con. (individual rats NO.1-3)",0.0578 µg/mL
same,concentration at 6 h,"Pharmacokinetic profiles; SD, rat, serum, iv, 1 mg/kg, IV 1 mg/kg, 6 h, read-out: Con. Mean",0.062 µg/mL
same,concentration at 8 h,"Pharmacokinetic profiles; SD, rat, serum, iv, 1 mg/kg, IV 1 mg/kg, 8 h, read-out: Con. (individual rats NO.1-3)",0.043 µg/mL
same,concentration at 8 h,"Pharmacokinetic profiles; SD, rat, serum, iv, 1 mg/kg, IV 1 mg/kg, 8 h, read-out: Con. Mean",0.0415 µg/mL
same,concentration at 12 h,"Pharmacokinetic profiles; SD, rat, serum, iv, 1 mg/kg, IV 1 mg/kg, 12 h, read-out: Con. (individual rats NO.1-3)",0.0164 µg/mL
same,concentration at 12 h,"Pharmacokinetic profiles; SD, rat, serum, iv, 1 mg/kg, IV 1 mg/kg, 12 h, read-out: Con. Mean",0.0169 µg/mL
same,concentration at 0.083 h,"Pharmacokinetic profiles; SD, rat, serum, 10 mg/kg, PO 10 mg/kg, 0.083 h, read-out: Con. (individual rats NO.1-3)",0.00972 µg/mL
same,concentration at 0.083 h,"Pharmacokinetic profiles; SD, rat, serum, 10 mg/kg, PO 10 mg/kg, 0.083 h, read-out: Con. Mean",0.00982 µg/mL
same,concentration at 0.25 h,"Pharmacokinetic profiles; SD, rat, serum, 10 mg/kg, PO 10 mg/kg, 0.25 h, read-out: Con. (individual rats NO.1-3)",0.0907 µg/mL
same,concentration at 0.25 h,"Pharmacokinetic profiles; SD, rat, serum, 10 mg/kg, PO 10 mg/kg, 0.25 h, read-out: Con. Mean",0.0931 µg/mL
same,concentration at 0.5 h,"Pharmacokinetic profiles; SD, rat, serum, 10 mg/kg, PO 10 mg/kg, 0.5 h, read-out: Con. (individual rats NO.1-3)",0.21 µg/mL
same,concentration at 0.5 h,"Pharmacokinetic profiles; SD, rat, serum, 10 mg/kg, PO 10 mg/kg, 0.5 h, read-out: Con. Mean",0.22 µg/mL
